The subject of the experiment is 6E10+-Aβ plaque. Kind of experiment: 6E10+-Aβ plaque burden in ADtg mouse brain sections. The note with it: same brain sections (FIG. 11C). The experiment is classed as in vivo. On the procedure: ADtg mice (10 months old) received subcutaneous injections of GA [also known as Cop-1 and Copaxone®; 100 μg in phosphate-buffered saline (PBS)] or PBS alone (control group) twice a week for 1 week and then once a week for 8 weeks. For evaluation of innate immune infiltration to the brain by flow cytometry, 10-month-old ADtg mice received subcutaneous injections of GA ([…] in PBS) or PBS alone twice a week for 1 week and then once a week for 3 weeks. At the end of the study, all mice were anaesthetized and then perfused with ice-cold PBS with 0.5 mM EDTA, after which their organs were collected and analyzed or fixed in 2.5% paraformaldehyde (Sigma-Aldrich), and cryoprotected with 30% sucrose for further histological analysis. CD115^+ monocytes from mice donors were isolated as previously reported (Koronyo et al., Brain: a journal of neurology 2015,138:2399-2422). […] For microscopic analysis, we used a Carl Zeiss Axio Imager Z1 fluorescence microscope equipped with ApoTome (Carl Zeiss MicroImaging, Inc.). […] The number and area (μm^2) of OPN+ cells, Iba1^+CD45^hi cells, GFAP^+ cells, Thio-S^+ amyloid-βplaques and 4G8^+ amyloid-βplaques were determined by examining four to six coronal sections per mouse at 150-μm intervals over an area covering both the hippocampal and cortical (including entorhinal and cingulate cortex) regions. […]

With glatiramer acetate [GA], the “6E10+-Aβ plaque burden compared with PBS controls” value was “substantial reduction”.

The record behind these values is US11779600B2, “Methods of treating or preventing alzheimer's disease and associated conditions” (CEDARS-SINAI MEDICAL CENTER, priority 2016, dated 2023).
